Active and inactive are the calls of the source. The rule behind the calls is not given here.
Key:
[1] = Upregulation of RunX-2 mRNA expression in rat primary calvarial osteoblasts at 10 nM by RT-PCR analysis relative to control; type: functional, cell-based; details: Calvarial osteoblast
[2] = Upregulation of OCN mRNA expression in rat primary calvarial osteoblasts at 10 nM by RT-PCR analysis relative to control; type: functional, cell-based; details: Calvarial osteoblast
[3] = Upregulation of ALP mRNA expression in rat primary calvarial osteoblasts at 100 pM by RT-PCR analysis relative to control; type: functional, cell-based; details: Calvarial osteoblast
Calvarial osteoblast [4] = assay: Induction of mineralization in rat primary calvarial osteoblasts assessed as mineralized nodule formation at 0.001 to 10 nM after 12 days by alizarin red S-staining based assay relative to control; type: functional, cell-based
Calvarial osteoblast [5] = assay: Osteogenic activity in rat primary calvarial osteoblasts at 100 pM after 48 hrs by ALP-based colorimetric assay; type: functional, cell-based
Calvarial osteoblast [6] = assay: Induction of cell proliferation in rat primary calvarial osteoblasts at 0.1 to 10 nM after 48 hrs by BrDU-staining based assay relative to control; type: functional
[7] = Upregulation of ALP mRNA expression in rat primary calvarial osteoblasts at 10 nM […] by RT-PCR analysis relative to control; type: functional, cell-based; details: Calvarial osteoblast
Calvarial osteoblast [8] = assay: Osteogenic activity in rat primary calvarial osteoblasts at 1 pM after 48 hrs by ALP-based colorimetric assay; type: functional, cell-based
Rattus norvegicus [9] = assay: Induction of bone formation in rat assessed as increase in bone-formation rate in calvarial osteoblasts at 10 mg/kg/day, sc dosed for 3 days by dynamic histomorphometric analysis relative to control; type: functional
Rattus norvegicus [10] = assay: Induction of bone formation in rat assessed as increase in bone-formation rate in calvarial osteoblasts at 1 mg/kg/day, sc dosed for 3 days by dynamic histomorphometric analysis relative to control; type: functional
Rattus norvegicus [11] = assay: Induction of bone formation in rat assessed as increase in mineral appositional rate in calvarial osteoblasts at 5 mg/kg/day, sc dosed for 3 days by dynamic histomorphometric analysis relative to control; type: functional
Rattus norvegicus [12] = assay: Osteogenic activity in rat assessed as upregulation of RunX-2 mRNA expression in calvarial osteoblasts at 1 mg/kg/day, sc dosed for 3 days by RT-PCR analysis relative to control; type: functional
Rattus norvegicus [13] = assay: Osteogenic activity in rat assessed as upregulation of RunX-2 mRNA expression in calvarial osteoblasts at 0.5 mg/kg/day, sc dosed for 3 days by RT-PCR analysis relative to control; type: functional
[14] = Upregulation of RunX-2 mRNA expression in rat primary calvarial osteoblasts at 100 pM by RT-PCR analysis relative to control; type: functional, cell-based; details: Calvarial osteoblast
Rattus norvegicus [15] = assay: Osteogenic activity in rat assessed as upregulation of COL-1 mRNA expression in calvarial osteoblasts at 1 mg/kg/day, sc dosed for 3 days by RT-PCR analysis relative to control; type: functional
Rattus norvegicus [16] = assay: Osteogenic activity in rat assessed as upregulation of ALP mRNA expression in calvarial osteoblasts at 5 mg/kg/day, sc dosed for 3 days by RT-PCR analysis relative to control; type: functional
Rattus norvegicus [17] = assay: Osteogenic activity in rat assessed as upregulation of COL-1 mRNA expression in calvarial osteoblasts at 5 mg/kg/day, sc dosed for 3 days by RT-PCR analysis relative to control; type: functional
Rattus norvegicus [18] = assay: Induction of bone formation in rat assessed as increase in bone-formation rate in calvarial osteoblasts at 5 mg/kg/day, sc dosed for 3 days by dynamic histomorphometric analysis relative to control; type: functional
Rattus norvegicus [19] = assay: Osteogenic activity in rat assessed as upregulation of RunX-2 mRNA expression in calvarial osteoblasts at 5 mg/kg/day, sc dosed for 3 days by RT-PCR analysis relative to control; type: functional
[20] = Upregulation of OCN mRNA expression in rat primary calvarial osteoblasts at 100 pM by RT-PCR analysis relative to control; type: functional, cell-based; details: Calvarial osteoblast
Rattus norvegicus [21] = assay: Osteogenic activity in rat assessed as upregulation of RunX-2 mRNA expression in calvarial osteoblasts at 10 mg/kg/day, sc dosed for 3 days by RT-PCR analysis relative to control; type: functional
Rattus norvegicus [22] = assay: Induction of bone formation in rat assessed as increase in mineral appositional rate in calvarial osteoblasts at 1 mg/kg/day, sc dosed for 3 days by dynamic histomorphometric analysis relative to control; type: functional
Calvarial osteoblast [23] = assay: Induction of cell proliferation in rat primary calvarial osteoblasts at 10 nM nM after 48 hrs by BrDU-staining based assay relative to control; type: functional
Calvarial osteoblast [24] = assay: Induction of mineralization in rat primary calvarial osteoblasts assessed as mineralized nodule formation at 10 to 1000 nM after 12 days by alizarin red S-staining based assay relative to control; type: functional, cell-based
Calvarial osteoblast [25] = assay: Osteogenic activity in rat primary calvarial osteoblasts at 10 nM after 48 hrs by ALP-based colorimetric assay; type: functional, cell-based

SMILES: C/C=C(\C)C(=O)O[C@@H]1C[C@H](O)[C@]23CO[C@H](C(=O)OC)[C@H]2[C@](C)([C@]24O[C@@]2(C)[C@H]2C[C@@H]4O[C@@H]4OC=C[C@@]42O)[C@H](O)[C@@H]2OC[C@@]1(C(=O)OC)[C@H]23
- fold change (FC) [1]: 2.5
- fold change (FC) [2]: 2.5
- fold change (FC) [3]: 2.8
- Activity (Calvarial osteoblast [4]): Active
- Activity (Calvarial osteoblast [5]): Active
- Activity (Calvarial osteoblast [6]): Active
- fold change (FC) [7]: 2.8

SMILES: C/C=C(\C)C(=O)O[C@H]1C[C@@H](OC(C)=O)[C@@]2(C)CO[C@H]3[C@H]4O[C@@H]5C[C@@H](c6ccoc6)C(C)=C5[C@@]4(C)[C@H](CC(=O)OC)[C@]1(C)[C@@H]32
- Activity (Calvarial osteoblast [8]): Active

SMILES: C/C=C(\C)C(=O)O[C@H]1C[C@@H](OC(C)=O)[C@@]2(C(=O)OC)CO[C@H]3[C@@H](O)[C@@](C)([C@@]45O[C@@]4(C)[C@H]4C[C@@H]5O[C@@H]5OC=C[C@@]54O)[C@H]4[C@]1(CO[C@]4(O)C(=O)OC)[C@@H]32
- fold change (FC) (Rattus norvegicus [9]): 3.2
- fold change (FC) (Rattus norvegicus [10]): 4
- fold change (FC) (Rattus norvegicus [11]): 4
- fold change (FC) (Rattus norvegicus [12]): 7
- fold change (FC) (Rattus norvegicus [13]): 5
- fold change (FC) [14]: 3.5
- fold change (FC) (Rattus norvegicus [15]): 7
- fold change (FC) (Rattus norvegicus [16]): 2
- fold change (FC) (Rattus norvegicus [17]): 3.5
- fold change (FC) (Rattus norvegicus [18]): 5
- fold change (FC) [3]: 4.5
- Activity (Calvarial osteoblast [4]): Active
- Activity (Calvarial osteoblast [5]): Active
- Activity (Calvarial osteoblast [6]): Active
- fold change (FC) (Rattus norvegicus [19]): 7.5
- fold change (FC) [20]: 3
- fold change (FC) (Rattus norvegicus [21]): 3
- fold change (FC) (Rattus norvegicus [22]): 3.4

SMILES: C[C@]12CC[C@@H]3c4ccc(O)cc4CC[C@H]3[C@@H]1CC[C@@H]2O
- Activity (Calvarial osteoblast [23]): Active

SMILES: CC(=O)O[C@@H]1C[C@H]2C(C)(C)C(=O)C=C[C@]2(C)[C@H]2CC[C@]3(C)C(=CC[C@H]3c3ccoc3)[C@@]21C
- fold change (FC) [14]: 2.7
- Activity (Calvarial osteoblast [24]): Active
- Activity [3]: inactive
- Activity (Calvarial osteoblast [5]): Active
- Activity (Calvarial osteoblast [6]): Active
- fold change (FC) [20]: 2.3

SMILES: CC(=O)O[C@@H]1C[C@H]2C(C)(C)C(=O)C=C[C@]2(C)[C@H]2CC[C@@]3(C)[C@H](c4ccoc4)C(=O)[C@H]4O[C@]43[C@@]21C
- Activity (Calvarial osteoblast [25]): Active
